Patent US20250066338A1, “CERTAIN 3-AZABICYCLO[3.1.0]HEXANES AS GLP-1 RECEPTOR MODULATORS” (AstraZeneca AB, priority 2021, published 2025)

What was measured:
[1] = biological target: human phosphodiesterase-3A (Homo sapiens (Human), UniProt Q14432); test: PDE3 Assay; assay type: biochemical; conditions: human recombinant enzyme expressed in Sf9 cells; formation of 5'AMP from cAMP
Method: Evaluation of the effects of compounds on the activity of the human phosphodiesterase-3A is quantified by measuring the formation of 5′AMP from cAMP using a human recombinant enzyme expressed in a clonal isolate of Spodoptera frugiperda cells (Sf9) cells.
The test compound, reference compound or water (control) are added to a buffer containing 40 mM tris(hydroxymethyl)aminomethane (Tris)/HCl (pH 7.4) and 8 mM MgCl2, 450 nMcAMP and 0.25 μCi [^3H]cAMP.
Thereafter, the reaction is initiated by addition of the enzyme (about 1 U) and the mixture is incubated for 20 min at 22° C.
For basal control measurements, the enzyme is omitted from the reaction mixture. Following incubation SPA beads are added. After 30 min at 22° C. under shaking, the amount of [^3H]^+ 5′AMP is quantified with a scintillation counter (Topcount, Packard).
The results are expressed as a percent inhibition of the control enzyme activity. The standard inhibitory reference compound is milrinone (CAS number 78415-72-2), which is tested in each experiment at several concentrations to obtain an inhibition curve from which its IC50 value is calculated.

[2] = biological target: GLP-1R in EndoC-βH1 cells (Homo sapiens (Human), UniProt P43220); test: EndoC cAMP Accumulation Assay; assay type: cell-based; conditions: EndoC-βH1 human pancreatic beta cell line; HTRF cAMP accumulation
Chain of GLP-1R in EndoC-βH1 cells (P43220 24-463): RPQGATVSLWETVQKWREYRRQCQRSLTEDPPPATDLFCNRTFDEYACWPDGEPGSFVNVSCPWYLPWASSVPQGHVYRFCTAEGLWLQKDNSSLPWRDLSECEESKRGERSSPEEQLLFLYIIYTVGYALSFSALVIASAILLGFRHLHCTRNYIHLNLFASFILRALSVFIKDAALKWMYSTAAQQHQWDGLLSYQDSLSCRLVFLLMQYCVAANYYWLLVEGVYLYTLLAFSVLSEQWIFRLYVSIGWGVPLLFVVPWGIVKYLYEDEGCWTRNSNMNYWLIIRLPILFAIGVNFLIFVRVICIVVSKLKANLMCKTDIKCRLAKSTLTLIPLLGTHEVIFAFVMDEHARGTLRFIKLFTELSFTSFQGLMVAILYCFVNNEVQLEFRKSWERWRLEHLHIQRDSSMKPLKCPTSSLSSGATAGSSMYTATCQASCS
From the text: EndoC cAMP Accumulation Assay
A HTRF cAMP assay (cAMP Gs dynamic kit; CisoBio Cat #62AM4PEJ) was used to identify agonists of GLP-1R in a pancreatic insulinoma cell line (EndoC-βH1). […] EndoC-βH1 cells have detectable GLP-1R messenger ribonucleic acid (mRNA) as detected by quantitative polymerase chain reaction (qPCR). […] The EndoC-βH1 cell line is a valid model of human beta cells and applicable for screenings to identify novel drug target candidates (Mol. Metab., 2018, 8, 144-157). CisBio HTRF cAMP kits are based on a competitive immunoassay using cryptate-labelled anti-cAMP antibody and d2-labeled cAMP. The detection kit is intended for the direct quantitative determination of cAMP. The specific signal (i.e. energy transfer) is inversely proportional to the concentration of cAMP in the standard or sample. Test compounds (10 mM in DMSO) were diluted into assay buffer (HBSS (Sigma #H8264) supplemented with 25 mM HEPES (Gibco #15630, pH 7.4), 0.1% BSA (Sigma #A3059) and 0.5 mM IBMX (Sigma #17018) included fresh on the day of the assay) into 96 well U-bottom plates (Greiner #650201). Diluted compounds were transferred to ECHO source polypropylene plates (Labcyte #P-05525) and dose response curves were dispensed acoustically using ECHO 550 into black shallow-well u-bottom 384-well HTRF Assay Plates (Corning 4514).
Cryovials of EndoC-H1 (supplied at 1×10e^7 cells/vial) were used directly for screening. The cryovials and were removed from N2 (1) and thawed rapidly in a 37° C. water bath. The cells were resuspended in assay buffer and centrifuged at 300 g for 5 min. Cells were resuspended in assay buffer at the appropriate concentration, typically at 12e5 cells per mL (3000 cells per well, dependent on cell batch) and 2.5 μL diluted cells were added to all wells of destination plate by Multidrop combi reagent dispenser (Thermofisher). The plates were incubated at rt for 30 min. The assay was stopped by adding 2.5 μL anti-cAMP cryptate solution to all wells and 2.5 μL cAMP-d2 solution (both diluted 1:20 in lysis buffer) to columns 1-22 by Combi drop. A volume of 2.5 μL cAMP-d2 solution was added to wells E23 to P24 and 2.5 μL lysis buffer added to wells A23 to D24 by multichannel pipette. The plates were incubated at rt for 1 h and read on an Envision plate reader using excitation wavelength of 320 nm and emission of […] and 660 nm.
Raw data from Envision is converted to % DeltaF according to the manufacturer's instructions. Dose response curves are analysed via 4-Parameter Logistical Analysis and assay plate Z′ values obtained. Samples are graphed as percentage (%) activation plots compared to GIP (1-42, Bachem H-5645) with assay window defined by negative control as basal cell cAMP levels and positive control are defined by maximum GIP (82.5 nM) signal. GLP1 (7-36 amide, Bachem H-6795) dose response curve was included on all plates.

human GLP-1R receptor = human GLP-1R receptor (Homo sapiens (Human), UniProt P43220, L260F); test: CHOK1 GLP-1R cAMP Assay; assay type: cell-based; conditions: CHO-K1 cell line stably expressing human GLP-1R; HTRF cAMP; agonist activity
Chain of human GLP-1R receptor (P43220 24-463 L260F): as the sequence (P43220 24-463) above, with L237F counted along it
Method: A cell line stably expressing the human GLP-1R receptor (NM 002062.5, including the naturally-occurring variant Leu260Phe) in a CHO-K1 (ATCC® CCL-61™) was used for assay.
GLP-1 receptor mediated agonist activity was determined in a cell based assay measuring cyclic adenosine monophosphate (cAMP) levels in cells using Homogeneous Time-Resolved Fluorescence (HTRF) cAMP detection kit (CisBio catalog #62AM4PEC, cAMP Gs Dynamic range kit). The cAMP detection method is based on a competitive immunoassay, in which cAMP produced by the cells and cAMP labeled with the dye d2 compete for binding to a Europium-Cryptate-labeled anti-cAMP antibody. The specific HTRF signal is inversely proportional to the concentration of cAMP.
Compounds were added to individual well in 384 well-assay plates (Greiner #784076) using an Echo (LabCyte) dispenser from 10 mM stocks. Varying concentration of compounds were added to wells, and DMSO was used to normalize each well to a volume of 100 nL. A dose response curve of GLP1(7-36)NH2 (Bachem H-6795) was included in each run. 5 μL of cAMP concentration response standards are applied in specified wells in the assay plates. Cryo-preserved cells are thawed and resuspended in assay buffer pre-heated to 37° C. (20 mM HEPES pH 7.4, lx Hank's Balanced Salt Solution (HBSS, Life Technologies #14065) supplemented with 0.1% (w/v) bovine serum albumin (Sigma, A-7030). Cells were centrifuged at 250*g for 5 min at rt, and resuspended in room tempered assay buffer to a final density of 0.16*10^6 cell/mL, to deliver 800 cells/well. 5 μL of assay buffer with 1 mM 3-isobutyl-1-methylxanthin (IBMX; Sigma cat I-7018) was dispensed per well in assay plates using a multidrop combi (Thermo Scientific) subsequently 5 μL of cell suspension was distributed to relevant wells in the assay using a multidrop dispenser. Assay plates were incubated 20 min at rt.
Detection reagents, Europium-Cryptate-labeled anti-cAMP antibody and cAMP labeled with the dye d2, are diluted in lysis buffer, provided by the manufacturer. 5 μL of each detection reagent is supplemented to each assay well using a multidrop dispenser. Assay plates are incubated in the dark for at least one h. The HTRF signal is measured using the HTRF module (excitation: 337 nm, emission A: 665 nm and emission B: 620 nm) in Pherastar FSX (BMG Labtech).
Raw data were converted to pM cAMP using the cAMP standard curve included in each run. Converted data were further analyzed in Genedata Screener (Genedata) and EC50 determinations were made from agonist dose-response curves analyzed with a curve fitting program using a 4-parameter logistic dose response equation (Equation y=A+((B−A)/1+((C/x)^D))) where A is no stimulation, B is full stimulation, C is the EC50 and D is the Hill slope). The percent effect was determined relative to a saturating concentration of a full GLP-1R agonist (GLP1(7-36)NH2 has 100% effect in this assay setup).

Chain of human phosphodiesterase-3A (Q14432 whole entry): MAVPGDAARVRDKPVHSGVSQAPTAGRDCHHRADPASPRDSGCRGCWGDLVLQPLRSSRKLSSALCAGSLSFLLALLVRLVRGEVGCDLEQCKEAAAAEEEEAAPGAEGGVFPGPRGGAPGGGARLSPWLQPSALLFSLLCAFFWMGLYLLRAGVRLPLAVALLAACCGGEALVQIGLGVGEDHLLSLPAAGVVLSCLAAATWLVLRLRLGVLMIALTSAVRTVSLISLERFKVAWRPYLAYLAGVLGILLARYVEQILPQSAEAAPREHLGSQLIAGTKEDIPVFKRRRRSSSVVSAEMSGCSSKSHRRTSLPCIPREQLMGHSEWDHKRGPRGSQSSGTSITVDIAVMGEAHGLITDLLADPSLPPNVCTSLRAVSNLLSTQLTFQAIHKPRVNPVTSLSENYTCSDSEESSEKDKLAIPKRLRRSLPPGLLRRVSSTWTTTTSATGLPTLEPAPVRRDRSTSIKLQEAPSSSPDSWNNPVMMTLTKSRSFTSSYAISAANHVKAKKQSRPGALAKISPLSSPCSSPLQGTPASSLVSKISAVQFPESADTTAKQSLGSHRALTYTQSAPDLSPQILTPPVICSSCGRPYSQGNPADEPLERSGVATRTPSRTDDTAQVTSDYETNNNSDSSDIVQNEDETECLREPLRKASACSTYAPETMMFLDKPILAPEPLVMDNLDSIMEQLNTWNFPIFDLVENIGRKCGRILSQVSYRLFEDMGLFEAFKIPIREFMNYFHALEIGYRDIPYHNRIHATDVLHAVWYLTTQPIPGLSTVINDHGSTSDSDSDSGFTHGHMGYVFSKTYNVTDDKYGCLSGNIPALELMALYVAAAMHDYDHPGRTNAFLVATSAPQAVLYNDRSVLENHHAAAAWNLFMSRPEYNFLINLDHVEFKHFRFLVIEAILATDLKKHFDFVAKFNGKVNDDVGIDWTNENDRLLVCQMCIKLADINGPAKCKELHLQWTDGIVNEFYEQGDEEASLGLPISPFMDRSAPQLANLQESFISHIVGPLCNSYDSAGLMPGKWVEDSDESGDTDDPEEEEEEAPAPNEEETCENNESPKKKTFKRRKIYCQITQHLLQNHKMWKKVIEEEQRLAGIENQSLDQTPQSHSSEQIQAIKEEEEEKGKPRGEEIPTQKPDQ

Compound | IC50 [1] | EC50 [2] | EC50 (human GLP-1R receptor)
CCn1cncc1Cn1c(CN2C[C@@H]3[C@H](C2)[C@H]3c2nc(OCc3ccc(Cl)cc3F)ccc2F)nc2c(OC)cc(C(=O)O)cc21 [Example 17, 2-(((1R,5S,6r)-6-(6-((4-Chloro-2-fluorobenzyl)oxy)-3-fluoropyridin-2-yl)-3-azabicyclo[3.1.0]hexan-3-yl)methyl)-1-((1-ethyl-1H-imidazol-5-yl)methyl)-4-methoxy-1H-benzo[d]imidazole-6-carboxylic acid] | > 100000 nM | 9.3 nM | 15 nM
CCn1cncc1Cn1c(CN2C[C@@H]3[C@H](C2)[C@H]3c2nc(OCc3ccc(C#N)cc3F)ccc2F)nc2c(OC)cc(C(=O)O)cc21 [Example 7, 2-(((1R,5S,6r)-6-(6-((4-Cyano-2-fluorobenzyl)oxy)-3-fluoropyridin-2-yl)-3-azabicyclo[3.1.0]hexan-3-yl)methyl)-1-((1-ethyl-1H-imidazol-5-yl)methyl)-4-methoxy-1H-benzo[d]imidazole-6-carboxylic acid] |  | 38 nM | 17 nM
COc1cc(C(=O)O)cc2c1nc(CN1C[C@@H]3[C@H](C1)[C@H]3c1nc(OCc3ccc(Cl)cc3F)ccc1Cl)n2C[C@@H]1CCO1 [Example 18, 2-(((1R,5S,6S)-6-(3-Chloro-6-((4-chloro-2-fluorobenzyl)oxy)pyridin-2-yl)-3-azabicyclo[3.1.0]hexan-3-yl)methyl)-4-methoxy-1-(((S)-oxetan-2-yl)methyl)-1H-benzo[d]imidazole-6-carboxylic acid] |  | 42 nM | 66 nM
CCn1cncc1Cn1c(CN2C[C@@H]3[C@H](C2)[C@H]3c2cccc(OCc3ccc(Cl)cc3F)n2)nc2ccc(C(=O)O)cc21 [Example 12, 2-(((1R,5S,6r)-6-(6-((4-Chloro-2-fluorobenzyl)oxy)pyridin-2-yl)-3-azabicyclo[3.1.0]hexan-3-yl)methyl)-1-((1-ethyl-1H-imidazol-5-yl)methyl)-1H-benzo[d]imidazole-6-carboxylic acid] |  | 150 nM | 97 nM
O=C(O)c1cc(F)c2nc(CN3C[C@@H]4[C@H](C3)[C@H]4c3cccc(OCc4ccc(Cl)cc4F)n3)n(C[C@@H]3CCO3)c2c1 [Example 15, 2-(((1R,5S,6S)-6-(6-((4-Chloro-2-fluorobenzyl)oxy)pyridin-2-yl)-3-azabicyclo[3.1.0]hexan-3-yl)methyl)-4-fluoro-1-(((S)-oxetan-2-yl)methyl)-1H-benzo[d]imidazole-6-carboxylic acid] |  | 28 nM | 57 nM
2-(((1R,5S,6S)-6-(6-((4-Cyano-2-fluorobenzyl)oxy)pyridin-2-yl)-3-azabicyclo[3.1.0]hexan-3-yl)methyl)-4-methoxy-1-(((S)-oxetan-2-yl)methyl)-1H-benzo[d]imidazole-6-carboxylic acid [Example 5] |  | 200 nM | 240 nM
O=C(O)c1ccc2nc(CN3C[C@@H]4[C@H](C3)[C@H]4c3nc(OCc4ccc(Cl)cc4F)ccc3F)n(C[C@@H]3CCO3)c2c1 [Example 16, 2-(((1R,5S,6S)-6-(6-((4-Chloro-2-fluorobenzyl)oxy)-3-fluoropyridin-2-yl)-3-azabicyclo[3.1.0]hexan-3-yl)methyl)-1-(((S)-oxetan-2-yl)methyl)-1H-benzo[d]imidazole-6-carboxylic acid] |  | 24 nM | 47 nM

Next, values leading:

IC50 [1] | EC50 [2] | EC50 (human GLP-1R receptor) | Compound
4000 nM |  |  | N#Cc1ccc(COc2cccc(C3=CCN(Cc4nc5ccc(C(=O)O)cc5n4C[C@@H]4CCO4)CC3)n2)c(F)c1 [Ref Comp A, reference compound]
11000 nM |  |  | N#Cc1ccc(COc2cccc(C3CCN(Cc4nc5ccc(C(=O)O)cc5n4C[C@H]4CCO4)CC3)n2)c(F)c1 [Ref Comp B, reference compound]
5000 nM |  |  | Cc1cc(Cc2nc3ccc(C(=O)O)cc3n2C[C@@H]2CCO2)c(F)cc1-c1cccc(OCc2ccc(C#N)cc2F)n1 [Ref Comp D, reference compound]
 | 43 nM | 62 nM | COc1cc(C(=O)O)cc2c1nc(CN1C[C@@H]3[C@H](C1)[C@H]3c1cccc(OCc3ccc(F)cc3F)n1)n2C[C@@H]1CCO1 [Example 20, 2-(((1R,5S,6S)-6-(6-((2,4-Difluorobenzyl)oxy)pyridin-2-yl)-3-azabicyclo[3.1.0]hexan-3-yl)methyl)-4-methoxy-1-(((S)-oxetan-2-yl)methyl)-1H-benzo[d]imidazole-6-carboxylic acid]
 | 31 nM | 74 nM | COc1cc(C(=O)O)cc2c1nc(CN1C[C@@H]3[C@H](C1)[C@H]3c1cccc(OCc3ccc(C)cc3)n1)n2C[C@@H]1CCO1 [Example 23, 4-Methoxy-2-(((1R,5S,6S)-6-(6-((4-methylbenzyl)oxy)pyridin-2-yl)-3-azabicyclo[3.1.0]hexan-3-yl)methyl)-1-(((S)-oxetan-2-yl)methyl)-1H-benzo[d]imidazole-6-carboxylic acid]
